Tests used:
Prostacyclin receptor = Prostacyclin receptor (Homo sapiens, UniProt P43119); test: Displacement of [3H]iloprost from cloned human PGI2 receptor
[1] = Oral bioavailability in rat; assay type: ADME, organism-based; details: in vivo
[2] = Cmax in rat at 1 mg/kg, po; assay type: ADME, organism-based; parameters: dose 1 mg/kg, route oral; details: in vivo
[3] = AUC in rat at 1 mg/kg, po; assay type: ADME, organism-based; parameters: dose 1 mg/kg, route oral; details: plasma

Chain of Prostacyclin receptor (P43119 whole entry): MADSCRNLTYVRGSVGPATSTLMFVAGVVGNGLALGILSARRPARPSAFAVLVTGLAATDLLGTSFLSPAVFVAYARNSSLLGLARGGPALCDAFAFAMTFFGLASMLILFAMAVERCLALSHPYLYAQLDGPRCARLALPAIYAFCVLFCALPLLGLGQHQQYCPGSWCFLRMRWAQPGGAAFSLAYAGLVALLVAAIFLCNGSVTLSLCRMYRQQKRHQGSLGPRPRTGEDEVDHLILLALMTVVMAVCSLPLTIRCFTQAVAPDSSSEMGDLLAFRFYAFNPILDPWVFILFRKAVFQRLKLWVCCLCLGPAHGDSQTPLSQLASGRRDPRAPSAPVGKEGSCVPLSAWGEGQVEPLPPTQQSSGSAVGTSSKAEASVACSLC

Ki (Prostacyclin receptor)	bioavailability [1]	Cmax [2]	AUC [3]	Structure (SMILES)
60 nM	50%	–	–	O=C([O-])COc1cccc(C[C@@H]2CCCC=C2c2nc(-c3ccccc3)c(-c3ccccc3)o2)c1.[Na+]
76 nM	–	–	–	O=C(O)COc1cccc(CN2CCC[C@@H]2c2nc(-c3ccccc3)c(-c3ccccc3)o2)c1
–	41%	15.5 ng/mL	81.7 ng·h/mL	Cl.O=C(O)COc1cccc(CN2CCC[C@@H]2c2nc(-c3ccccc3)c(-c3ccccc3)o2)c1
